Assay results: patent publication US20130245081A1, “Compositions and Methods for Treating Amyotrophic Lateral Sclerosis” (priority 2009, published 2013)
Like-named read-outs stand apart in the source and are kept apart here. Marks after values point to notes of the source that are not given here.

Experiments:
[1] = tested on: patients with ALS; assay: Part 2: 4-week single-blind placebo washout period (withdrawal effects)
[2] = tested on: patients with ALS; settings: for treatment failures (6-point or greater drop in ALSFRS-R total score): baseline to 12 weeks; for treatment failures (reduction in VC of 20% or greater): baseline to Week 12
[3] = 150 mg during Part 1, placebo washout period
[4] = 300 mg during Part 1, placebo washout period

CCCN[C@@H]1CCc2nc(N)sc2C1 [dexpramipexole, (6R)-2-amino-4,5,6,7-tetrahydro-6-(propylamino)benzothiazole]
serious TEAE: Dyspnoea [1, 3]: 0 N (%) | serious TEAE: General Disorders and Administration Site Conditions [1, 3]: 0 N (%) | serious TEAE: Renal and Urinary Disorders [1, 3]: 0 N (%) | serious TEAE: Respiratory, Thoracic and Mediastinal Disorders [1, 3]: 0 N (%) | serious TEAE: Urethral obstruction [1, 3]: 0 N (%) | serious TEAE: Urinary retention [1, 3]: 0 N (%) | ≧1 TEAE [1, 3]: 13 (52%) N (%) | ≧1 TEAE with an outcome of death [1, 3]: 0 N (%) | ≧1 serious TEAE (including death) [1, 3]: 0 N (%) | ≧1 serious treatment-related TEAE [1, 3]: 0 N (%) | ≧1 severe TEAE [1, 3]: 0 N (%) | ≧1 treatment-related TEAE [1, 3]: 2 (8%) N (%) | Neutrophil Count, Mean (SD) ([1]; 300 mg during Part 1, Baseline (Part 1: Week 12)): 3.905 (1.9377) ×10^3/μL | Neutrophil Count, Mean (SD) ([1]; 300 mg during Part 1, Part 2: Week 4 (end of placebo washout)): 4.112 (1.1979) ×10^3/μL | ALS-related TEAE: Disease progression [1, 4]: 0 N (%) | ALS-related TEAE: Dyspnoea [1, 4]: 1 (4%) N (%) | ALS-related TEAE: Fall [1, 4]: 2 (8%) N (%) | ALS-related TEAE: General Disorders and Administration Site Conditions [1, 4]: 0 N (%) | ALS-related TEAE: Injury, Poisoning and Procedural Complications [1, 4]: 2 (8%) N (%) | ALS-related TEAE: Muscle spasms [1, 4]: 1 (4%) N (%) | ALS-related TEAE: Muscular weakness [1, 4]: 0 N (%) | ALS-related TEAE: Musculoskeletal and Connective Tissue Disorders [1, 4]: 1 (4%) N (%) | ALS-related TEAE: Respiratory, Thoracic and Mediastinal Disorders [1, 4]: 1 (4%) N (%) | Neutrophil Count, Mean Δ (SD) from baseline to Week 4 [1, 4]: 0.130 (1.3502) ×10^3/μL | Number of TEAEs [1, 4]: 46 | Number of serious TEAEs [1, 4]: 1 | Number of severe TEAEs [1, 4]: 1 | Number of treatment-related TEAEs [1, 4]: 3 | Subjects with a TEAE with action taken of study drug discontinued [1, 4]: 1 (4%)^b N (%) | Subjects with ≧1 ALS-related TEAE [1, 4]: 5 (21%) N (%) | TEAE: Anxiety [1, 4]: 0 N (%) | TEAE: Back pain [1, 4]: 1 (4%) N (%) | TEAE: Constipation [1, 4]: 3 (13%) N (%) | TEAE: Cough [1, 4]: 0 N (%) | TEAE: Diarrhoea [1, 4]: 1 (4%) N (%) | TEAE: Dyspnoea [1, 4]: 1 (4%) N (%) | TEAE: Fall [1, 4]: 3 (13%) N (%) | TEAE: Gastrointestinal Disorders [1, 4]: 3 (13%) N (%) | TEAE: General Disorders and Administration Site Conditions [1, 4]: 3 (13%) N (%) | TEAE: Injury, Poisoning and Procedural Complications [1, 4]: 6 (25%) N (%) | TEAE: Muscle spasms [1, 4]: 1 (4%) N (%) | TEAE: Muscular weakness [1, 4]: 0 N (%) | TEAE: Musculoskeletal and Connective Tissue Disorders [1, 4]: 2 (8%) N (%) | TEAE: Nausea [1, 4]: 2 (8%) N (%) | TEAE: Post lumbar puncture syndrome [1, 4]: 1 (4%) N (%) | TEAE: Psychiatric Disorders [1, 4]: 0 N (%) | TEAE: Pyrexia [1, 4]: 2 (8%) N (%) | TEAE: Respiratory, Thoracic and Mediastinal Disorders [1, 4]: 1 (4%) N (%) | mean change from baseline in ALSFRS-R score over 4 weeks [1, 4]: −1.5 | mean change from baseline in VC over 4 weeks [1, 4]: −2.7% | serious TEAE: Disease progression [1, 4]: 0 N (%) | serious TEAE: Dyspnoea [1, 4]: 1 (4%) N (%) | serious TEAE: General Disorders and Administration Site Conditions [1, 4]: 0 N (%) | serious TEAE: Renal and Urinary Disorders [1, 4]: 0 N (%) | serious TEAE: Respiratory, Thoracic and Mediastinal Disorders [1, 4]: 1 (4%) N (%) | serious TEAE: Urethral obstruction [1, 4]: 0 N (%) | serious TEAE: Urinary retention [1, 4]: 0 N (%) | subjects who required a tracheostomy [1, 4]: 1 subject | ≧1 TEAE [1, 4]: 11 (46%) N (%) | ≧1 TEAE with an outcome of death [1, 4]: 0 N (%) | ≧1 serious TEAE (including death) [1, 4]: 1 (4%) N (%) | ≧1 serious treatment-related TEAE [1, 4]: 0 N (%) | ≧1 severe TEAE [1, 4]: 1 (4%) N (%) | ≧1 treatment-related TEAE [1, 4]: 2 (8%) N (%) | treatment failures (6-point or greater drop in ALSFRS-R total score) ([2]; 50 mg/day): 35% | mean change from baseline to endpoint in ALSFRS-R total score ([2]; 50 mg, 12 weeks): −5.0 | median change from baseline to endpoint in ALSFRS-R score ([2]; 50 mg, 12 weeks): −3.0 | mean ALSFRS-R total score ([2]; 50 mg, Week 12 of Part 1): 32.4 | mean McGill SIS score ([2]; 50 mg, Week 12 of Part 1): 6.3 | mean upright VC ([2]; 50 mg, Week 12 of Part 1): 82.5% | treatment failures (reduction in VC of 20% or greater) ([2]; 50 mg): 13% | treatment failures (6-point or greater drop in ALSFRS-R total score) ([2]; 150 mg/day): 15% | mean change from baseline to endpoint in ALSFRS-R total score ([2]; 150 mg, 12 weeks): −3.3 | median change from baseline to endpoint in ALSFRS-R score ([2]; 150 mg, 12 weeks): −2.5 | mean ALSFRS-R total score ([2]; 150 mg, Week 12 of Part 1): 35.8 | mean upright VC ([2]; 150 mg, Week 12 of Part 1): 82.3% | treatment failures (reduction in VC of 20% or greater) ([2]; 150 mg): 12% | treatment failures (6-point or greater drop in ALSFRS-R total score) ([2]; 300 mg/day): 8% | mean fine motor domain change of ALSFRS-R (mean±SEM) ([2]; 300 mg/day, study endpoint): −0.6±0.24 | mean change from baseline to endpoint in ALSFRS-R total score ([2]; 300 mg, 12 weeks): −2.2 | median change from baseline to endpoint in ALSFRS-R score ([2]; 300 mg, 12 weeks): −2.0 | reduction of mean ALSFRS-R decline compared with placebo ([2]; 300 mg, 12 weeks): 39% | reduction of median ALSFRS-R decline compared with placebo ([2]; 300 mg, 12 weeks): 50% | slope of ALSFRS-R scores (linear mixed-effects) ([2]; 300 mg, Part 1): −0.878 | mean ALSFRS-R total score ([2]; 300 mg, Week 12 of Part 1): 36.2 | mean McGill SIS score ([2]; 300 mg, Week 12 of Part 1): 7.3 | mean upright VC ([2]; 300 mg, Week 12 of Part 1): 82.1% | median upright VC ([2]; 300 mg, Week 12 of Part 1): 91.2% | treatment failures (reduction in VC of 20% or greater) ([2]; 300 mg): 4% | reduction in handwriting score (FIG. 4A) ([2]; daily doses of 30 mg (so in the source)): almost no reduction
